From US20100029724A1, “SCREENING METHOD” (Takeda Pharmaceutical Company Limited, priority 2006, published 2010)

Key:
ZDF rats = assay: Evaluation of anti-diabetic action in ZDF rat (blood glucose level); assay type: in vivo; details: male ZDF rat at 16 weeks of age; mixed diet 0.03% compound from 8 weeks of age (dose 20.9 mg/kg body weight); mean±SD; control group 652.8±23.10
Experimental: Male ZDF rats (5-week-old, Charles River Japan) were reared while allowing free-feeding of both diet and water. As the feed, a standard laboratory diet (MF; Oriental Yeast Co, Tokyo, Japan) and a mixed diet (the aforementioned standard laboratory diet containing 0.03% of compound (a)) were used. After acclimation rearing for 1 week, the body weight and glycated hemoglobin were measured, and the ZDF rats were divided into 2 groups (8 rats/group) such that the measurement values became uniform at 8 weeks of age. For the control group, the aforementioned standard laboratory diet was given, and for the compound (a) administration group, the aforementioned mixed diet was given from 8 weeks of age to 19 weeks of age.
At 16 weeks of age, the food intake in 24 hr was measured. The rats were reared at 4 rats/cage, the total amount of decrease in the diet in a can set to each cage was divided by 4 and taken as the daily food intake per rat. In addition, the dose of compound (a) was calculated from the food intake and the content of compound (a) in the mixed diet.
At 16 weeks of age, moreover, the blood was drawn from the rat tail vein using heparin as an anticoagulant. The blood sample was preserved on ice, and the plasma after centrifugation was preserved at −20° C. until measurement. The blood glucose level was measured by a biochemical automatic analyzer (Beckman Coulter, Shyncron CX5Δ).

Crj: CD(SD)IGS rats = assay: Evaluation of hemoglobin increasing action; assay type: in vivo, rat; details: female Crj: CD(SD)IGS rats, 600 mg/kg/day oral, 4 weeks, mean±SD
Experimental: (1) After acclimation rearing for 1 week, female Crj: CD(SD)IGS rats (5-week-old) were divided into 2 groups (10 rats/group). (2) For one group, a suspension of compound (a), obtained by suspending compound (a) in 0.5% aqueous methylcellulose solution, was orally administered at 10 ml/kg body weight/day (dose of compound (a): 600 mg/kg body weight/day) once a day. For the other group, 0.5% aqueous methylcellulose solution was orally administered at 10 ml/kg body weight/day in the same manner, and used as the control group. (3) After 4-week administration under free-feeding conditions, the rats were fasted for 20 hr, and the whole blood was collected from the abdominal artery into a blood collection vessel (SP-U0501EM, Sekisui Chemical), and the red blood cell count, hematocrit, hemoglobin concentration, and MCH (average red blood cell hemoglobin) of the rat blood were measured. The numerical values in the Table show mean±standard deviation.

[1] = test system: cytochrome c oxidase activity of high glucose-treated HepG2 cell; assay: Cytochrome c oxidase activity in high glucose treated HepG2 cell; assay type: cell-based, human; details: compound 3 μM, 3 days, high glucose (4.5 g/L) HepG2, mean±SD, n=4
Experimental: (1) Human liver cancer cell-derived cell line HepG2 was passaged in low glucose (1 g/L) Eagle Modified Dulbecco's Medium supplemented with 10% fetal bovine serum. The cells adjusted to 3×10^5/mL using the same medium were plated on a 96 well plate and precultured overnight. The aforementioned medium was changed to high glucose (4.5 g/L) Eagle Modified Dulbecco's Medium supplemented with 5 μg/mL transferrin, compound (a) or compound (l) was added and the cell culture was continued for 3 days. The same experiment was performed without using compound (a) and compound (l) as the control group. […] (3) The DNA content was measured using PicoGreen dsDNA Quantitation Kit (Molecular Probes P-7589), and used as an index of cell number. The cytochrome c oxidase activity was determined using the Cytochrome c oxidase Assay kit (Sigma CYTOC-OX1) modified to fit a 96 well plate protocol. […] The time-course changes in the absorbance were measured by determining the absorbance at 550 nm at a delta soft kinetic mode once in 15 sec for 6 min from immediately after the start of the reaction. The cytochrome c oxidase activity was calculated as an absorbance change rate in 5 min from 1 to 6 min. […]

[2] = target: T1, human recombinant ferrochelatase (Homo sapiens, UniProt P22830); assay: Measurement of ferrochelatase activity (zinc-protoporphyrin IX production, fluorescence); assay type: biochemical; details: compound 3 μM, mean±SD, n=8, control group 0.377 ± 0.010
T1 construct: attached to the N terminal of the human FeCh Mature region (55th-423rd amino acid residues); Nus-Tag (N, cleaved yes); His-Tag (N, cleaved yes); made in house; host or cells: Escherichia coli BL21 (DE3)
T1 sequence (P22830 55-423): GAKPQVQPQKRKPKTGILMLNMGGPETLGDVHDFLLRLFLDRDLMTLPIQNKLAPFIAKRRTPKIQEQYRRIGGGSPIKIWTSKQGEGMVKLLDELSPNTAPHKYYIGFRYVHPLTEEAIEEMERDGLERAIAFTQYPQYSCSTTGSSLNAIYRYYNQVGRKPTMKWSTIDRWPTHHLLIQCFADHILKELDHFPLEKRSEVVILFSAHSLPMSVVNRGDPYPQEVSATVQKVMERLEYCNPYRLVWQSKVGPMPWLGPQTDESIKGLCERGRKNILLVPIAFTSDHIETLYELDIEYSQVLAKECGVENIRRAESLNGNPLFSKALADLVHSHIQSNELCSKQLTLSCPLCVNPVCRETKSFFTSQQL
Experimental: Using human FeCh gene (Invitrogen) as a template, PCR was performed using the following primer 1 (SEQ ID NO: 3) and primer 2 (SEQ ID NO: 4). Pyrobest DNA polymerase (TAKARA SHUZO CO., LTD.) was used for the PCR, and extension reactions were performed under the conditions of (1) 95° C. 1 min, then (2) 30 cycles of 96° C. 15 sec, 60° C. 30 sec, 72° C. 90 sec, then (3) 72° C. for 7 min. After the reaction, the amplification product was inserted into pCR-Blunt II-TOPO (Invitrogen) and cloned. The obtained plasmid was digested with Bgl II and Xho I to recover inserted fragments. The fragments were inserted into the Bam HI/Xho I site of pET43.1a (Novagen) to give an expression vector pET43.1a-hFeCh encoding a protein with Nus-Tag and His-Tag attached to the N terminal of the human FeCh Mature region (55th-423rd amino acid residues).
The expression vector pET43.1a-hFeCh constructed in the above-mentioned A1 was introduced into Escherichia coli BL21 (DE3) Competent Cell (Stratagene) to give an expression strain. […]
The cells obtained in the above-mentioned A2 were suspended in Blue column Buffer (10 mM Tris-HCl (pH 8.1), 0.5 M NaCl, 10% Glycerol, 1% Triton X-100, 5 mM 2-Mercaptoethanol (2-ME), 250 ml) containing Protease Cocktail (Complete, EDTA-free; Roche). […] As a result of protein quantification (CBB method; Pierce), the total protein amount of about 8 mg of human FeCh was obtained. […]

Wistar Fatty rats = assay: Evaluation of anti-diabetic action in Wistar Fatty rats (glycosylated hemoglobin); assay type: in vivo, rat; details: male Wistar Fatty rats, mean±SD, n=5-6
Experimental: Lean rats in the same lot as the male Wistar Fatty rats (26 to 27-week-old; TAKEDA RABICS, lot0402) were used. Blood samples were collected from Wistar Fatty rats in the morning under non-fasting, and glycosylated hemoglobin % value (GHB %) and plasma component were measured. GHB % was measured by Tosoh automatic glycohemoglobin analyzer HLC-723 GHbV Alc2.2. The Plasma component was measured by Beckman Synchron system CX5 delta. The rats showing a GHB % value of not less than 7.5% and a high PG value were divided into 2 groups. For one group, a suspension of compound (1), obtained by suspending compound (l) in 0.5% aqueous methylcellulose solution, (dose of compound (l): 10 mg/kg body weight) was orally administered repeatedly once a day for 20 days. For the other group, 0.5% aqueous methylcellulose solution was orally administered in the same manner, and used as the control group. On the day of completion of the administration, the blood samples were collected again, and GHB % was measured. The numerical values in the Table show mean±standard deviation of n=5-6 (n is the number of rats).

SMILES	blood glucose level (ZDF rats) [mg/dL]	hemoglobin (Crj: CD(SD)IGS rats; control group 15.3 ± 0.4) [g/dL]	MCH (average red blood cell hemoglobin) (Crj: CD(SD)IGS rats; control group 19.6 ± 0.4) [pg]	hematocrit (Crj: CD(SD)IGS rats; control group 42.5 ± 1.1) [%]	red blood cell count (Crj: CD(SD)IGS rats; control group 777 ± 21)	Cytochrome c oxidase activity ([1]; Table 5, control group 0.649 ± 0.044) [units/μg DNA]	ferrochelatase activity [2] [Em 590 nm]	Glycosylated hemoglobin value, after drug administration (Wistar Fatty rats; 10 mg/kg oral once a day for 20 days, control group 7.7 ± 0.2) [%]	Glycosylated hemoglobin value, amount of change (Wistar Fatty rats; 10 mg/kg oral once a day for 20 days, control group −0.5 ± 0.2) [%]	Glycosylated hemoglobin value, before drug administration (Wistar Fatty rats; baseline before 10 mg/kg oral once a day for 20 days) [%]	Cytochrome c oxidase activity ([1]; Table 6, control group 0.743 ± 0.043)
CCOP(=O)(OCC)OCc1ccc(NC(=O)/C=C/c2cnn(C)c2-c2ccc(F)cc2)cc1 [compound (a), diethyl [4-({(2E)-3-[5-(4-fluorophenyl)-1-methyl-1H-pyrazol-4-yl]prop-2-enoyl}amino)benzyl]phosphate]	271.7 ± 36.5	16.1 ± 0.7	20.7 ± 0.5	44.7 ± 1.9	779 ± 32 ×10^4/μl	0.757 ± 0.029	0.609 ± 0.008				
Cn1ncc(/C=C/C(=O)Nc2ccc(CCc3nnco3)cc2)c1-c1ccc(F)cc1 [compound (l), (2E)-3-[5-(4-fluorophenyl)-1-methyl-1H-pyrazol-4-yl]-N-{4-[2-(1,3,4-oxadiazol-2-yl)ethyl]phenyl}acrylamide]							0.655 ± 0.009	6.9 ± 0.4	−1.3 ± 0.3	8.2 ± 0.5	0.990 ± 0.088 units/(μg DNA
